The subject of assay [1] is SHSY5Y cells. The assay is described as follows: TMRE staining of mitochondrial membrane potential in SHSY5Y cells. The assay is classed as cell-based. The following applies: 10 μM, 72 hours. The procedure:
FIGS. 6A-6C. Histograms showing TMRE staining of SH-SY5Y cells transiently expressing empty vector (Mock) or Swedish mutant APP in the presence or absence of 474 (10 μM) for 72 hours (FIG. 6A). Quantification of TMRE staining in (A). Error bars represent SEM for n=3 replicates. Statistics calculated from one-tailed Student's t-test. *p<0.05, **p<0.01, ***p<0.001 (FIG. 613). Graph showing relative luminescence from CellTiterGlo assay of SH-SY5Y cells transiently expressing empty vector or Swedish mutant APP cultured in galactose media for 72 hours in the presence or absence of IRE1 activator 474 (10 μM). Error bars represent SEM for n=3 replicates. Statistics calculated from one-tailed Student's t-test. *p<0.05, **p<0.01, ***p<0.001 (FIG. 6C).
Cells were treated as indicated then incubated with TMRE dye (200 nM) for 30 mins at 37° C. Samples were collected by trypsinization. Trypsin was neutralized by washing into cell culture media and then samples were washed twice in DPBS. […] Fluorescence intensity of TMRE was recorded on the PE channel of a Novocyte Flow Cytometer (ACEA Biosciences, Inc.). Data are presented as mean of the fluorescence intensity from 3 experiments. For each experiment, 10,000 cells per condition in triplicates were recorded.
Next, mitochondrial membrane potential was monitored in SHSY5Y cells overexpressing APP^SW and that had been treated with 474. […]

In assay [2] the test system is APP. The assay can be described thus: [35S] metabolic labeling of APP in 7PA2 CHO cells. The assay is classed as cell-based. The procedure: FIGS. 5A-5D. […] Cells were treated for 18 hours, media was then replaced and conditioned in the presence of treatments for 24 hours before harvesting for ELISA assay. Error bars represent SEM for n=3 replicates. Statistics calculated from one-tailed Student's t-test. *p<0.05, **p<0.01, ***p<0.001 (FIG. 5A). Quantification of media and lysate immunoblots from 474 treatment (10 μM) of APP. Error bars represent Standard Deviation for n=3 replicates. Statistics calculated from one-tailed Student's t-test. *p<0.05, **p<0.01 ***p<0.001 (FIG. 5B). […] Statistics calculated from one-tailed Student's t-test. *p<0.05, **p<0.01, ***p<0.001 (FIG. 5C). […] Statistics calculated from one-tailed Student's t-test. *p<0.05, **p<0.01, ***p<0.001 (FIG. 5D).
[^35S] metabolic labeling experiments were performed as previously described^8. […] Band intensities were quantified by densitometry in ImageQuant. Fraction secreted was calculated using the equation: fraction secreted=[extracellular [^35S]-APP signal at t/(extracellular [^35S]-APP signal at t=0+intracellular[^35S]-APP signal at t=0)]. Fraction remaining was calculated using the equation: [(extracellular [^35S]-APP signal at t+intracellular [^35S]-APP signal at t)/(extracellular [^35S]-APP signal at t=0+intracellular [^35S]-APP signal at t=0)].

On to `Cc1ccc(OCCN(C)C(=O)Cn2cc(NC(=O)CCOc3ccccc3)cn2)cc1` [Compound 474], for which the “APP SW-associated reductions in mitochondrial membrane potential” value in assay [1] (SHSY5Y overexpressing APP SW) is “prevented”. Moreover, in assay [1] (mock-transfected cells), the mitochondrial membrane potential entry is on record as “did not influence”. For the same compound, in assay [2], the APP degradation result is given as “increased APP degradation” and the “secretion of soluble APP into the media” value is “reduced the secretion of soluble APP”.

The values above are taken from patent US11426402B2, “IRE1 activating compounds for use in therapy” (The Scripps Research Institute, priority 2019, dated 2022).
